Our source for the IC50 values is PubChem BioAssay AID624167 (Sanford-Burnham Center for Chemical Genomics, 2012).

Experiment [1] has as its target PEG-3 (UniProt Q6IN02). Put plainly: Peg3 promoter luciferase inhibitors, potency, dose response, cell-based, HeLa, CREF/GAPDH counter-screen panel (AID 624167). Conditions: HeLa PEG-Prom luciferase reporter, overnight, CREF/GAPDH counter-screens, mean of runs. On the technique in general: Counterscreens check selectivity or assay interference.
Experiment [2] has as its system PEG-3. The description is as above. The following applies: HeLa PEG-Prom luciferase reporter, overnight, CREF/GAPDH counter-screens.
The mark [3] stands for this setting: run 1, dose range 1, individual replicate IC50 per panel.
Setting [4] is: run 2, dose range 1, individual replicate IC50 per panel.

Calls of active or inactive are those of the source.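 Rule for the calls: active = mean IC50 for reducing PEG3 promoter reporter signal at or below a set limit, with IC50 above the limit in both counter screens; inactive = the rest, including counter screen hits.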

Sequence of PEG-3 (UniProt Q6IN02) (Q6IN02 whole entry, looked up): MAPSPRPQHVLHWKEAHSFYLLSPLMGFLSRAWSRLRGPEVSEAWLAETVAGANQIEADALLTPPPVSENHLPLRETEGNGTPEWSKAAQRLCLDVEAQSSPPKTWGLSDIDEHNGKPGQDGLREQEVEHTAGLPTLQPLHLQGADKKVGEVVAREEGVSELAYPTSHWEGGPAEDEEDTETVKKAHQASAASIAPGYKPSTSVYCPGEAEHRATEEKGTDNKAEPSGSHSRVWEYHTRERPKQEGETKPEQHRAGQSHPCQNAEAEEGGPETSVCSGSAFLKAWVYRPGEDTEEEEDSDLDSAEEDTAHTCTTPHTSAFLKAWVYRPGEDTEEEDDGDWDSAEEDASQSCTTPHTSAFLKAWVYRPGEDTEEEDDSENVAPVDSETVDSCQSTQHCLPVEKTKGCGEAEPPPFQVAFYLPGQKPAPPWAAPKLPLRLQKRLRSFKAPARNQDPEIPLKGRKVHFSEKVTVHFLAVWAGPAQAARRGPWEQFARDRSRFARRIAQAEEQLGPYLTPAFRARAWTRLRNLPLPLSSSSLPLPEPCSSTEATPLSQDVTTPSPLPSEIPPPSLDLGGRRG

For the compound `CCN1CCN(c2ccc(S(=O)(=O)N3CCOCC3)cc2NC(=O)/C=C/c2ccc([N+](=O)[O-])cc2)CC1`, the IC50 result at PEG-3 [1] was “inactive”. Also, the figures for the IC50 with PEG-3 [2] (setting [3]) and with PEG-3 [2] (setting [4]) were 19 µM and 78.3 µM, respectively.
The matching figures for `Cc1nn(-c2ccccc2Cl)c(Cl)c1/C=N/Nc1nc2ccccc2s1`: < 0.2 µM, < 0.2 µM and < 0.2 µM.
For `CN1CCN(CCNC(=O)c2ccc3nc(-c4ccc(F)cc4)c(-c4ccc(F)cc4)nc3c2)CC1` the same measures were 15.4 µM, 19.4 µM and 11.3 µM.
Consider `C[C@@H]1O[C@@H](O[C@@H]2C=C3CCC4C(CC[C@]5(C)[C@@H](c6ccc(=O)oc6)CC[C@]45O)[C@@]3(C)CC2)[C@H](O)[C@H](O)[C@H]1O` (stereo not given in full), for which the IC50 at PEG-3 [1] is 0.45 µM; with PEG-3 [2] (setting [3]), 0.709 µM; in the experiment on PEG-3 [2] (setting [4]), < 0.2 µM.
For `CC[n+]1c(-c2ccccc2)c2cc(N)ccc2c2ccc(N)cc21` the same measures were 15.7 µM, 7.7 µM and 23.6 µM.
For `CC1=CC2OC3CC4OC(=O)C=CC=CC(C(C)O)OCC(O)C(C)CC(=O)OCC2(CC1O)C4(C)C31CO1` (stereo not given) the same measures were < 0.2 µM, < 0.2 µM and < 0.2 µM.
For `CCCCCCOc1ccc(/C(C)=N/NC2=NCCN2)cc1` the same measures were 11.9 µM, 15.7 µM and 8.2 µM.
In the case of `CC(=O)N1CCN(c2cc(-c3ccccc3)nc3cc(-c4cccc(Cl)c4)nn23)CC1`, the IC50 entry at PEG-3 [1] is “inactive”. Also, the results for the IC50 with PEG-3 [2] (setting [3]) and with PEG-3 [2] (setting [4]) were 23.8 µM and 18.3 µM, respectively.
For the compound `O=C(Nc1ccc(-c2nc3ccccc3o2)cc1)c1ccc(N2CCOCC2)c([N+](=O)[O-])c1`, the results for the IC50 at PEG-3 [1], in the experiment on PEG-3 [2] (setting [3]) and in the experiment on PEG-3 [2] (setting [4]) were > 100 µM (inactive), > 100 µM and > 100 µM, respectively.
`Cc1cc(C(=O)CN2C(=O)c3ccccc3S2(=O)=O)c(C)n1C(C)C`: the IC50 at PEG-3 [1] is 12.1 µM; in the experiment on PEG-3 [2] (setting [3]) it was 6.41 µM; with PEG-3 [2] (setting [4]) it was 17.8 µM.
For `O=S(=O)(c1cccc(F)c1)N1CCN(c2nc(-c3cccnc3)nc3ccccc23)CC1` the same measures were 12.9 µM, 10.1 µM and 15.8 µM.
With `Cc1ccc(S(=O)(=O)N2CCCCC2)cc1C(=O)N(C)CC(=O)Nc1ccc(Cl)c(C(F)(F)F)c1`, the IC50 result at PEG-3 [1] was “inactive”. Also, the half-inhibitory concentration (IC50) with PEG-3 [2] (setting [3]) is 45.1 µM; in the experiment with PEG-3 [2] (setting [4]), 42.7 µM.
Regarding `COc1ccccc1CCNC(=O)C1CCN(c2nnc(C)c3c(C)n(-c4ccc(C)cc4)nc23)CC1`, the IC50 result at PEG-3 [1] was “inactive”. Moreover, the results for the IC50 with PEG-3 [2] (setting [3]) and in the experiment on PEG-3 [2] (setting [4]) were 19.4 µM and 24.1 µM, respectively.
The matching figures for `CC(C)CC(N)c1csc(Nc2ccc(C(=O)c3ccccc3)cc2)n1` (stereo not given): “inactive”, 31.1 µM and 29.8 µM.
The matching figures for `CCc1nccn1C(=O)c1cnn2c(C(F)F)cc(-c3ccc(C)cc3)nc12`: 17.2 µM, 18.7 µM and 15.6 µM.
For `COc1ccc2c(c1)[nH]c1c(=O)n(/N=C/C3C(C)C=C(C)CC3C)c(=O)[nH]c12` (stereo not given) the same measures were > 100 µM (inactive), > 100 µM and > 100 µM.
As to `COc1cc(CNC(C)(C)CO)cc(Br)c1OCc1ccc(Cl)cc1`, the IC50 at PEG-3 [1] was 16.6 µM; with PEG-3 [2] (setting [3]), 20.6 µM; in the experiment with PEG-3 [2] (setting [4]), 12.6 µM.
The matching figures for `N/C(=N\OC(=O)c1ccccc1)C(C(=O)NOC(=O)c1ccccc1)C1CCCCC1` (stereo not given): “inactive”, 24.5 µM and > 100 µM.
For `COc1ccc(/C=C/C(=O)c2ccc3c4c(cccc24)CC3)cc1OC` the same measures were “inactive”, 31.6 µM and 42 µM.
The matching figures for `CC1(Cc2ccc(Cl)c(Cl)c2)C(=O)Nc2ccc(S(=O)(=O)NC3CCCCC3)cc21` (stereo not given): 17.7 µM, 18.1 µM and 17.2 µM.
As to `CN(C)CCNC(=O)c1sc2nc(-c3ccccc3)cc(C(F)(F)F)c2c1N`, the IC50 result at PEG-3 [1] was “inactive”. The figures for the IC50 in the experiment on PEG-3 [2] (setting [3]) and in the experiment on PEG-3 [2] (setting [4]) were 20.5 µM and 19.8 µM, respectively.
For `CCCCN(C)C(=O)c1ccc(Nc2nc(C(N)CCc3ccccc3)cs2)nc1` (stereo not given) the same measures were “inactive”, 27.6 µM and 15.4 µM.
For `COc1ccc(C(c2nnnn2-c2c(C)cccc2C)N2CCC(n3c(=O)[nH]c4ccccc43)CC2)cc1` (stereo not given) the same measures were 11.3 µM, 11.4 µM and 11.3 µM.
Turning to `Cc1ccc(NC(=O)Nc2ccnc(-c3cccnc3)n2)cc1`, the IC50 at PEG-3 [1] was > 100 µM (inactive); in the experiment with PEG-3 [2] (setting [3]), > 100 µM; in the experiment with PEG-3 [2] (setting [4]), > 100 µM.
Turning to `CCN(CC)CCOc1ccc(/C(=C(/Cl)c2ccccc2)c2ccccc2)cc1`, the IC50 was 17 µM on PEG-3 [1], 22.4 µM in the experiment with PEG-3 [2] (setting [3]) and 11.6 µM with PEG-3 [2] (setting [4]).

One may read the IC50 as the concentration that gives 50% inhibition.
